Data as given in patent US20110244058A1, “Compositions and methods for treatment of pulmonary diseases and conditions” (priority 2008, published 2011).
In brackets after ≈: the same amount, converted by molar mass. Where two headings read alike, the source gives them in different places.

Key:
[1] = tested on: mice with LPS-induced sepsis; conditions: eight mice per group; intranasal drip pulmonary delivery at 0, 6, 23.5 hr; LPS 50 μg at 24 hour; control three out of eight died
Method: In all three groups, LPS-induced sepsis was caused by delivery of highly concentrated LPS (50 μg) at 24 hour. […] In the steroid-treated mice, an inhaled corticosteroid (ICS) was delivered for 5 minutes through intranasal drip pulmonary delivery at 0 hr, 6 hr, and 23.5 hr. In the control group, no drug was administered prior to inducing LPS sepsis.

[2] = tested on: Brown Norway (BN) rats sensitized to ragweed pollen extract; conditions: aerosolized 0.05% brimonidine or 0.005% dexmedetomidine for 10 minutes before ragweed extract, FIG. 3
Method: The control group rats were pretreated with aerosolized saline and administered aerosolized saline. The saline group rats were pretreated with aerosolized saline, then exposed to aerosolized ragweed extract for 10 minutes.
At 10 minutes after completion of the allergen exposure, rats were anesthetized and exsanguinated, and their lungs were lavaged with 50 ml of buffer solution. The resulting bronchoalveolar lavage (BAL) fluid was centrifuged to remove the cells, and the supernatants were analyzed for albumin concentration using an ELISA assay for rat albumin.

[3] = Ionization as a function of pH; assay type: physicochemical
Text: At a lower pH and a lower lipophilicity, bronchial mucosal membrane retention time is maximized and mucosal penetration is reduced. More of a drug is washed away and less is absorbed into lung parenchyma increasing the surface mucosal effect. The higher the lipophilicity, the greater is the selective α-2 agonist's penetration through the lipophilic mucosal cell membranes. This is because at a more alkaline pH, more of the compound is present in a non-ionized form.
When a selective α-2 agonist is lipophilic, it becomes highly ionized as it enters the distal esophagus and stomach. […] Thus, it is very poorly absorbed in lipophilic membranes of the gastrointestinal tract and therefore, results in less systemic absorption.

[4] = Text: The terms “salt” and “constituent of a balanced salt solution” are used interchangeably for the purposes of the present invention. They are a subset of agents that improve solubility of the inventive formulations.
[5] = remark: listed apart in the source
Text: The doses are estimates only, assuming less than 20% nebulized DTL (dose to lung).

Remark: listed apart in the source
[6] = tested on: α-2 over α-1 adrenergic receptors; conditions: cited from earlier work
[7] = cited from earlier work

Brc1c(NC2=NCCN2)ccc2nccnc12.O=C(O)C(O)C(O)C(=O)O [brimonidine, 5-bromo-6-(2-imidazolin-2-ylamino)quinoxaline D-tartrate]
deaths because of LPS-induced sepsis [1]: no animals died
BAL albumin concentration after ragweed exposure [2]: no apparent protective effect

Cc1cccc([C@H](C)c2cnc[nH]2)c1C [dexmedetomidine]
ionized ([3]; in pharynx (pH is about 6.8)): about 65%
ionized ([3]; in stomach (pH of less than 5.0)): ~100%
ionized ([3]; lungs and airways, pH about 7.4 to 7.8): 10-23%
ionized ([3]; pH of 6.7): about 65%
non-ionized ([3]; pH of 6.7): about 35%
ionized ([3]; pH of 8.0 or greater): about 10%
non-ionized ([3]; pH of 8.0 or greater): about 90%
max soluble concentration, BSS solution ([4]; pH 7): ≧0.10%
soluble concentration with constituents of a balanced salt solution ([4]; pH 7.1): ≥ 0.1%
wheeze-auscultation score ([5]; nebulized 0.03% at pH 5.0, reduced from baseline 10, scale for mild asthma): about 5
lung effects (wheeze and airway resistance versus baseline) ([5]; nebulized 0.03% at pH 8.0, versus pH 5.0): the lung effects are greater
max soluble concentration (pH 6): 0.195%
max soluble concentration (pH 6.4): 0.060%
max soluble concentration (pH 7): 0.023%
max soluble concentration (pH 7.4): 0.015%
max soluble concentration (pH 8): 0.013%
BAL albumin concentration after ragweed exposure [2]: albumin levels similar to those of control rats
solubility (physchem; pH 6, aqueous buffer): 1950 µg/mL (≈ 9750 µM)
solubility (physchem; pH 6.4, aqueous buffer): ~600 µg/mL (≈ 3000 µM)
solubility (physchem; pH 7, aqueous buffer): 224 µg/mL (≈ 1120 µM)
solubility (physchem; pH 7.4, aqueous buffer): ~150 µg/mL (≈ 749 µM)
solubility (physchem; pH 8, aqueous buffer): 134 µg/mL (≈ 669 µM)
α2/α1 selectivity [6]: over 1,500

CNC1(c2ccccc2Cl)CCCCC1=O (stereo not drawn) [ketamine]
ionization ([3]; pH of about 8.5): about 10%
ionization ([3]; physiologic pH): over 60%
plasma level at which dissociative changes have been documented ([7]; in vivo): ≤ 1000 ng/mL
plasma level at which sedation occurs ([7]; in vivo): about 9000 μg/L
plasma levels with prior art inhalation forms ([7]; inhalation): over 800 ug/L
